Reference: the NIST ThermoML archive (doi:10.1016/j.jct.2015.12.027)

Experiments:
[1] = 81.5 kPa, Liquid, Vibrating tube method
[2] = refractive index (Na D-line) (dimensionless); conditions: 81.5 kPa, Liquid, Standard Abbe refractometry
[3] = refractive index (Na D-line) (dimensionless); xn = mol fraction of the nth substance listed; conditions: 81.5 kPa, Liquid, Standard Abbe refractometry
[4] = xn = mol fraction of the nth substance listed; conditions: 81.5 kPa, Liquid, Vibrating tube method

Brc1ccccc1 [bromobenzene]
Conditions | mass density, 293.15 K [kg/m3] | mass density, 303.15 K [kg/m3] | mass density, 313.15 K [kg/m3] | mass density, 323.15 K [kg/m3] | mass density, 333.15 K [kg/m3] | refractive index, 293.15 K | refractive index, 303.15 K | refractive index, 313.15 K | refractive index, 323.15 K | refractive index, 333.15 K
[1] | 1495.52 | 1481.97 | 1468.41 | 1454.85 | 1441.22 | – | – | – | – | –
[2] | – | – | – | – | – | 1.55981 | 1.55442 | 1.5489 | 1.54319 | 1.53742

ClCCCl [1,2-dichloroethane]
Conditions | mass density, 293.15 K [kg/m3] | mass density, 303.15 K [kg/m3] | mass density, 313.15 K [kg/m3] | mass density, 323.15 K [kg/m3] | mass density, 333.15 K [kg/m3] | refractive index, 293.15 K | refractive index, 303.15 K | refractive index, 313.15 K | refractive index, 323.15 K | refractive index, 333.15 K
[1] | 1252.82 | 1238.27 | 1223.53 | 1208.61 | 1193.61 | – | – | – | – | –
[2] | – | – | – | – | – | 1.44472 | 1.43948 | 1.43423 | 1.42897 | 1.42373

ClCCCl [1,2-dichloroethane] + Brc1ccccc1
x1 = 1
Conditions | mass density, 293.15 K [kg/m3] | mass density, 303.15 K [kg/m3] | mass density, 313.15 K [kg/m3] | mass density, 323.15 K [kg/m3] | mass density, 333.15 K [kg/m3] | refractive index, 293.15 K | refractive index, 303.15 K | refractive index, 313.15 K | refractive index, 323.15 K | refractive index, 333.15 K
[3] | – | – | – | – | – | 1.44472 | 1.43948 | 1.43423 | 1.42897 | 1.42373
[4] | 1252.82 | 1238.27 | 1223.53 | 1208.61 | 1193.61 | – | – | – | – | –

O=[N+]([O-])c1ccccc1 [nitrobenzene]
Conditions | mass density, 293.15 K [kg/m3] | mass density, 303.15 K [kg/m3] | mass density, 313.15 K [kg/m3] | mass density, 323.15 K [kg/m3] | mass density, 333.15 K [kg/m3] | refractive index, 293.15 K | refractive index, 303.15 K | refractive index, 313.15 K | refractive index, 323.15 K | refractive index, 333.15 K
[1] | 1203.05 | 1193.15 | 1183.21 | 1173.27 | 1163.32 | – | – | – | – | –
[2] | – | – | – | – | – | 1.55241 | 1.54763 | 1.54288 | 1.53795 | 1.53289

Clc1ccccc1 [chlorobenzene]
Conditions | mass density, 293.15 K [kg/m3] | mass density, 303.15 K [kg/m3] | mass density, 313.15 K [kg/m3] | mass density, 323.15 K [kg/m3] | mass density, 333.15 K [kg/m3] | refractive index, 293.15 K | refractive index, 303.15 K | refractive index, 313.15 K | refractive index, 323.15 K | refractive index, 333.15 K
[1] | 1106.49 | 1095.71 | 1084.86 | 1073.96 | 1063.01 | – | – | – | – | –
[2] | – | – | – | – | – | 1.52455 | 1.51902 | 1.51346 | 1.50781 | 1.50223

c1ccccc1 [benzene]
Conditions | mass density, 293.15 K [kg/m3] | mass density, 303.15 K [kg/m3] | mass density, 313.15 K [kg/m3] | mass density, 323.15 K [kg/m3] | mass density, 333.15 K [kg/m3] | refractive index, 293.15 K | refractive index, 303.15 K | refractive index, 313.15 K | refractive index, 323.15 K | refractive index, 333.15 K
[1] | 878.87 | 868.2 | 857.44 | 846.62 | 835.71 | – | – | – | – | –
[2] | – | – | – | – | – | 1.50118 | 1.49517 | 1.4885 | 1.48264 | 1.47638

ClCCCl [1,2-dichloroethane] + O=[N+]([O-])c1ccccc1
x1 = 1
Conditions | mass density, 293.15 K [kg/m3] | mass density, 303.15 K [kg/m3] | mass density, 313.15 K [kg/m3] | mass density, 323.15 K [kg/m3] | mass density, 333.15 K [kg/m3] | refractive index, 293.15 K | refractive index, 303.15 K | refractive index, 313.15 K | refractive index, 323.15 K | refractive index, 333.15 K
[3] | – | – | – | – | – | 1.44472 | 1.43948 | 1.43423 | 1.42897 | 1.42373
[4] | 1252.82 | 1238.27 | 1223.53 | 1208.61 | 1193.61 | – | – | – | – | –

ClCCCl [1,2-dichloroethane] + Clc1ccccc1
x1 = 1
Conditions | mass density, 293.15 K [kg/m3] | mass density, 303.15 K [kg/m3] | mass density, 313.15 K [kg/m3] | mass density, 323.15 K [kg/m3] | mass density, 333.15 K [kg/m3] | refractive index, 293.15 K | refractive index, 303.15 K | refractive index, 313.15 K | refractive index, 323.15 K | refractive index, 333.15 K
[3] | – | – | – | – | – | 1.44472 | 1.43948 | 1.43423 | 1.42897 | 1.42373
[4] | 1252.82 | 1238.27 | 1223.53 | 1208.61 | 1193.61 | – | – | – | – | –

c1ccccc1 [benzene] + ClCCCl
x2 = 0
Conditions | mass density, 293.15 K [kg/m3] | mass density, 303.15 K [kg/m3] | mass density, 313.15 K [kg/m3] | mass density, 323.15 K [kg/m3] | mass density, 333.15 K [kg/m3] | refractive index, 293.15 K | refractive index, 303.15 K | refractive index, 313.15 K | refractive index, 323.15 K | refractive index, 333.15 K
[3] | – | – | – | – | – | 1.50118 | 1.49517 | 1.4885 | 1.48264 | 1.47638
[4] | 878.87 | 868.2 | 857.44 | 846.62 | 835.71 | – | – | – | – | –
